Results reported in paper PMC4407688 (Drug metabolism and drug interactions, 2014).
Like-named read-outs stand apart in the source and are kept apart here.

Experiments:
[1] = system: OATP-1B3 transfected CHO cells; format: cell-based, Chinese hamster
OATP-1B3 = biological target: T1, OATP-1B3 (Homo sapiens, UniProt Q9NPD5); test: Inhibition of [3H]CCK-8 cellular accumulation in OATP-1B3 transfected CHO cells; format: cell-based; details: for Inhibition of cellular accumulation of [3H]CCK-8 (in words): 25 and 50 μM, OATP-1B3 transfected cells; for Inhibition in net uptake rate of [3H]CCK-8 in OATP-1B3 cells (in words): increasing concentrations 0.1-100 μM
T1 sequence (Q9NPD5 1-702): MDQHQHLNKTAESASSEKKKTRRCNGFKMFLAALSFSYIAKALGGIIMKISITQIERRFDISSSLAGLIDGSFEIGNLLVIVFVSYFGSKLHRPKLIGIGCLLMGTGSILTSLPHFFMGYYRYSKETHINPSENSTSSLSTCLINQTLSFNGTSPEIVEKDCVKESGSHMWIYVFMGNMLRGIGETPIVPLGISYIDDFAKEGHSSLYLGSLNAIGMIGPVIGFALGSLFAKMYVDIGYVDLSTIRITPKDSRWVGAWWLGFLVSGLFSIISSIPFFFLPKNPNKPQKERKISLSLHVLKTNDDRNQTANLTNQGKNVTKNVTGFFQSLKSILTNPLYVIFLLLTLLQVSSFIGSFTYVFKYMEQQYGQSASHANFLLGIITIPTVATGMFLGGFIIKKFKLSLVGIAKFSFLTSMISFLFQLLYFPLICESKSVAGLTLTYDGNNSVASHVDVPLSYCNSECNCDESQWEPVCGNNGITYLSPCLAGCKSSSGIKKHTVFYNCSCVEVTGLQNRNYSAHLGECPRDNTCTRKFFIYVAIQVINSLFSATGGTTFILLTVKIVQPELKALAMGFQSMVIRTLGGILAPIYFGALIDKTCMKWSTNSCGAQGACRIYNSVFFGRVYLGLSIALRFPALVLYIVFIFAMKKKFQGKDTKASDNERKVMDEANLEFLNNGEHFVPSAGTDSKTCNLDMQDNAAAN

OATP-1B1 [2] = details: 10 μM, Flp-In T-Rex293 cells expressing OATP-1B1; ref Hu et al. [24]; cited from earlier work
OATP-1B1 [3] = biological target: T2, OATP-1B1 (Homo sapiens, UniProt Q9Y6L6); details: for Inhibition of cellular accumulation of [3H]ES (in words) / Diminished uptake of [3H]ES: 25 and 50 μM; for Diminished uptake of [3H]ES: p < 0.05
T2 sequence (Q9Y6L6 1-691): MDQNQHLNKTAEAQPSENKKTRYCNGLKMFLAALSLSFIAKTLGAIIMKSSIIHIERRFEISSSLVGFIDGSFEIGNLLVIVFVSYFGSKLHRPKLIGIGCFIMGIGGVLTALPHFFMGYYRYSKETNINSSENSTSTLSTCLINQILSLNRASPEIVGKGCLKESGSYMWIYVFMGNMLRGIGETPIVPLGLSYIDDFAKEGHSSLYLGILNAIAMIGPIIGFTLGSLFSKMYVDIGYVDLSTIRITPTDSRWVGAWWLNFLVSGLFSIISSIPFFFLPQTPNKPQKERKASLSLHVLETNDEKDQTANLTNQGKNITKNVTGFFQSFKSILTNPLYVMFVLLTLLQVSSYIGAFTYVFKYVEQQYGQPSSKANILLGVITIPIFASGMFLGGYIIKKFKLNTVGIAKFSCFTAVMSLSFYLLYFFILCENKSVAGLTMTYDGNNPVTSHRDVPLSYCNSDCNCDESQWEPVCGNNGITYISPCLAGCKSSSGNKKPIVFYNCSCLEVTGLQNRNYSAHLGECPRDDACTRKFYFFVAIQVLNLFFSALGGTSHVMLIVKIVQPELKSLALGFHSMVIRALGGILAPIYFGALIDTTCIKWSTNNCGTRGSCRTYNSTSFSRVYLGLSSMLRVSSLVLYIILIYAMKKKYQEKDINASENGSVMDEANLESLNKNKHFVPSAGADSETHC

[4] = system: OATP-1B1 transfected CHO cells
[5] = coadministration of pazopanib; ref Tan et al. [41]; cited from earlier work
[6] = coadministration together with CsA; ref [16], [34], [35]; cited from earlier work
[7] = 100 μM, 24 h, OATP-1B3 transfected cells, relative to positive control Triton X
[8] = 100 μM, 24 h, OATP-1B1 transfected cells, relative to positive control Triton X

Row | SMILES | Inhibition of cellular accumulation of [3H]CCK-8 (in words) (OATP-1B3) | Inhibition in net uptake rate of [3H]CCK-8 in OATP-1B3 cells (in words) (OATP-1B3) | Inhibition of OATP-1B1 (in words) (OATP-1B1 [2]) | Inhibition of cellular accumulation of [3H]ES (in words) (OATP-1B1 [3]; OATP-1B1 transfected cells) | Cytotoxic effect [1, 7] | Cytotoxic effect [4, 8] | other results
1 | CO[C@H]1/C=C/O[C@@]2(C)Oc3c(C)c(O)c4c(O)c(c(/C=N/N5CCN(C)CC5)c(O)c4c3C2=O)NC(=O)/C(C)=C\C=C\[C@H](C)[C@H](O)[C@@H](C)[C@@H](O)[C@@H](C)[C@H](OC(C)=O)[C@@H]1C [Rifampicin] |  |  |  |  |  |  | IC50 (OATP-1B3): 3.67 ± 1.2 µM; IC50 (OATP-1B1 [3]): 10.5 ± 1.15 µM; Reduced uptake of [3H]ES (OATP-1B1 [3]; 50 μM, OATP-1B1 transfected cells): 70%
2 | CC(=O)O[C@H]1C(=O)[C@@]2(C)[C@H]([C@H](OC(=O)c3ccccc3)[C@]3(O)C[C@H](OC(=O)[C@H](O)[C@@H](NC(=O)c4ccccc4)c4ccccc4)C(C)=C1C3(C)C)[C@]1(OC(C)=O)CO[C@@H]1C[C@@H]2O [paclitaxel] |  |  |  |  |  |  | Lower paclitaxel clearance [5]: 14%
3 | CC[C@H](C)C(=O)O[C@H]1C[C@H](O)C=C2C=C[C@H](C)[C@H](CC[C@@H](O)C[C@@H](O)CC(=O)O)[C@H]21 [pravastatin] |  |  |  |  |  |  | Increased AUC of statin [6]: 9.93 fold
4 | CC(C)c1nc(N(C)S(C)(=O)=O)nc(-c2ccc(F)cc2)c1/C=C/[C@@H](O)C[C@@H](O)CC(=O)O [rosuvastatin] |  |  |  |  |  |  | Increased AUC of statin [6]: 7.08 fold
5 | Cc1cn(-c2cc(NC(=O)c3ccc(C)c(Nc4nccc(-c5cccnc5)n4)c3)cc(C(F)(F)F)c2)cn1 [Nilotinib, nilotinib] | did not show any significant effect | no significant inhibition | inhibitory potency | significant inhibition | No cytotoxic effects | No cytotoxic effects | Diminished uptake of [3H]ES (OATP-1B1 [3]; OATP-1B1 transfected cells): ~90%

Continued, in another order:

Row | Inhibition of cellular accumulation of [3H]CCK-8 (in words) (OATP-1B3) | Inhibition in net uptake rate of [3H]CCK-8 in OATP-1B3 cells (in words) (OATP-1B3) | SMILES | Inhibition of OATP-1B1 (in words) (OATP-1B1 [2]) | Inhibition of cellular accumulation of [3H]ES (in words) (OATP-1B1 [3]; OATP-1B1 transfected cells) | Cytotoxic effect [1, 7] | Cytotoxic effect [4, 8] | other results
6 | significant inhibition |  | COc1cc2c(Nc3ccc(Br)cc3F)ncnc2cc1OCC1CCN(C)CC1 [Vandetanib, vandetanib] | inhibitory activity | did not show any significant inhibitory activity |  |  | Cytotoxic effect [1]: No cytotoxic effects; IC50 (OATP-1B3): 18.1 ± 1.21 µM; Cytotoxic effect [4]: No cytotoxic effects
7 | did not show any significant effect | no significant inhibition | C=CC(=O)Nc1cc2c(Nc3ccc(F)c(Cl)c3)ncnc2cc1OCCCN1CCOCC1 [Canertinib, canertinib] |  | did not show any significant inhibitory activity | No cytotoxic effects | No cytotoxic effects | 
8 | did not show any significant effect | no significant inhibition | C#Cc1cccc(Nc2ncnc3cc(OCCOC)c(OCCOC)cc23)c1 [Erlotinib, erlotinib] | inhibitory activity | did not show any significant inhibitory activity | No cytotoxic effects | No cytotoxic effects | 
9 | did not show any significant effect | no significant inhibition | Cc1ccc(Nc2nccc(N(C)c3ccc4c(C)n(C)nc4c3)n2)cc1S(N)(=O)=O [Pazopanib] | inhibitory potency | significant inhibition |  |  | Cytotoxic effect [1]: No cytotoxic effects; IC50 (OATP-1B1 [3]): 3.89 ± 1.21 µM; Diminished uptake of [3H]ES (OATP-1B1 [3]; OATP-1B1 transfected cells): ~90%; Cytotoxic effect [4]: No cytotoxic effects
